Experimental data taken from patent US7635693B2, “Methods for preventing and treating cancer using N-thiolated β-lactam compounds and analogs thereof” (University of South Florida, priority 2002, dated 2009).
Values joined by “and” are separate entries in the source; they are usually repeats but may differ in a detail not shown here. Equal entries are not always repeated. Where two headings read alike, the source gives them in different places.

How the values were obtained:
[1] = tested on: caspase-3; assay: Cell-free caspase-3 activity assay on extracts of treated Jurkat T cells; assay type: cell-based, human; conditions: 50 μM, 8 hours
Description: (§1) Briefly, a prepared protein extract (20 μg) is incubated in a buffer containing 50 mM Tris/pH 8.0 along with each respective caspase substrate at 20 μM in a 96 well plate. The reaction mixture is incubated at 37° C. for 2 h.
A library of β-lactam analogs was screened for their ability to induce apoptosis. The screening procedure is accomplished by treating human Jurkat T cells with each compound at 50 μM for 8 hours. This is followed by preparation of cell lysates and measurement of apoptosis-specific caspase-3 activation (by cell-free caspase-3 activity assay) and PARP cleavage (by Western blotting).

[2] = tested on: PARP; assay: PARP cleavage, Western blot, Jurkat T cells; assay type: cell-based, human; conditions: 50 μM, 8 hours
Description: A library of β-lactam analogs was screened for their ability to induce apoptosis. […] This is followed by preparation of cell lysates and measurement of apoptosis-specific caspase-3 activation (by cell-free caspase-3 activity assay) and PARP cleavage (by Western blotting).

[3] = tested on: Jurkat T cells; assay: Flow cytometry cell cycle distribution and sub-G1 population, Jurkat T cells; assay type: cell-based, human; conditions: 50 μM; for increase in S phase population / sub-G1 apoptotic population: 5 hours
Description: Cell Death Differ 5:1062-75. At each time point, cells are harvested, counted, and washed twice with PBS. Cells (5×10^6) are suspended in 0.5 ml PBS, fixed in 5 ml of 70% ethanol for at least 2 h at −20° C., centrifuged, resuspended again in 1 ml of propidium iodide staining solution (50 μg propidium iodide, 100 units RNase A and 1 mg glucose per ml PBS), and incubated at room temperature for 30 minutes. The cells are then analyzed with FACScan (Becton Dickinson Immunocytometry, CA), ModFit LT and WinMDI V.2.8 cell cycle analysis software (Verity Software; Topsham, Me.). The cell cycle distribution is shown as the percentage of cells containing G1, S, G2, and M DNA judged by propidium iodide staining. The apoptotic population is determined as the percentage of cells with sub-G1 (<G1) DNA content.

[4] = tested on: Jurkat T cells; assay: TUNEL assay (DNA strand breaks), Jurkat T cells; assay type: cell-based, human; conditions: for TUNEL-positive cell population (DNA damage): 4 hour
Description: Terminal deoxynucleotidyl transferase-mediated UTP nick end labeling (TUNEL) was performed to determine the extent of DNA strand breaks. TUNEL assay was performed with an APO-Direct kit per the manufacturer's instructions. In brief, cells are fixed in 1% paraformaldehyde and ethanol at […] overnight and then permeabilized with Proteinase K. After permeabilization, Fluorescein conjugated dNTP's and TdT enzyme (Terminal Deoxynucleotidyl Transferase) are added to the cells. The TdT enzyme is then able to label free ends of DNA with Fluorescein conjugated dNTPs that could then be detected by flow cytometry.
The assay was performed following manufacturer's instruction using the APO-Direct kit. In brief, the harvested cells were fixed in 1% paraformaldehyde for 15 min on ice, washed with PBS, and then fixed again in 70% ethanol at −20° C. overnight. The cells were then incubated in DNA labeling solution (containing terminal deoxynucleotidyl transferase (TdT) enzyme, fluorescein-conjugated dUTP and reaction buffer) for 90 min at 37° C. After removing the DNA labeling solution by rinsing cells with Rinsing Buffer, the cells were incubated with the Propidium Iodide/RNase A solution, incubated for 30 min at room temperature in the dark, and then analyzed by flow cytometry within 3 h of staining.

[5] = tested on: Jurkat T cells; assay: Morphological changes of treated Jurkat T cells; assay type: cell-based, human; conditions: 50 μM, 8 hours
[6] = tested on: p38 MAP kinase; assay: p38 phosphorylation, Western blot, Jurkat T cells; assay type: cell-based, human; conditions: for normalized increase in phosphorylation of p38 over control: FIG. 8D
Description: It has been shown that multiple stimuli including DNA damaging agents induce apoptosis via activation of p38 MAP kinase (Kummer J L, et al., 1997, Apoptosis induced by withdrawal of trophic factors is mediated by p38 mitogen-activated protein kinase. J. Biol Chem 272:20490-4; Sanchez-Prieto R, et al., 2000, A role for the p38 mitogen-acitvated protein kinase pathway in the transcriptional activation of p53 on genotoxic stress by chemotherapeutic agents. Cancer Res 60:2464-72). […] The levels of Tyr-182 phosphorylated p38 protein were increased by 3-fold at 2 h and reached its maximum (˜9-fold) by 6 h (FIG. 8A). In has been shown that dual phosphorylation of p38 on Tyr-182 and Thr-180 activates this kinase (Raingeaud J, et al., 1995, Pro-inflammatory cytokines and environmental stress cause p38 mitogen-activated protein kinase activation by dual phosphorylation on tyrosine and threonine. J Biol Chem 270:7420-6). […] Therefore, lactam 1-induced DNA damage triggered activation of p38 before S population accumulation and apoptosis induction.

[7] = tested on: Jurkat T cells; assay type: cell-based, human; conditions: for non-viable cell population / cell death (trypan blue): 50 μM
Description: The trypan blue exclusion assay was performed by injecting 10 μl of cell suspension containing 0.2% trypan blue dye into a hemoicytometer and counting. Numbers of cells that absorbed the dye and those that excluded the dye are counted, from which the percentage of non-viable cell number to total cell number is calculated.

[8] = tested on: PARP; conditions: YT cells, 2, 10, 25, and 50 μM, 12 h
Description: Human Jurkat T cells and human prostate cancer LNCaP cells were cultured in RPMI 1640 medium, supplemented with 10% fetal bovine serum, 100 units/ml penicillin, and 100 μg/ml streptomycin. Human YT cells were cultured in RPMI 1640 medium supplemented with 1 mM MEM sodium pyruvate solution, 0.1 mM MEM non-essential amino acids solution, 10% fetal bovine serum, 100 units/ml penicillin, and 100 μg/ml streptomycin. All cell lines were maintained at 37° C. in a humidified incubator with an atmosphere of 5% CO2. […] Briefly, cells were harvested, washed with PBS and homogenized in a lysis buffer (50 mM Tris-HCl, pH 8.0, 5 mM EDTA, 150 mM NaCl, 0.5% NP-40, 0.5 mM phenylmethylsulfonyl fluoride, and 0.5 mM dithiothreitol) for 30 min at 4° C. Afterwards, the lysates were centrifuged at 12000×g for 15 min at 4° C. and the supernatants collected as whole-cell extracts. Equal amounts of protein extract (60 μg) were resolved by SDS-polyacrylamide gel electrophoresis and transferred to a nitrocellulose membrane (Schleicher & Schuell, Keene, N. H.) using a Semi-Dry Transfer System (Bio-Rad, Hercules, Calif.). The enhanced chemiluminescence Western blot analysis was then performed using specific antibodies to the proteins of interest.

[9] = tested on: NK cells (YT line); conditions: YT cells, 2, 10, 25, and 50 μM, 24 h
Description: The trypan blue dye exclusion assay was performed by mixing 20 μl of cell suspension with 20 μl of 0.4% trypan blue dye before injecting into a hemocytometer and counting. The number of cells that absorbed the dye and those that exclude the dye were counted, from which the percentage of nonviable cell number to total cell number was calculated.

[10] = tested on: caspase-3; conditions: LNCaP cells, 48 h
Description: To measure cell-free caspase-3 activity, whole cell extracts (20-30 μg) from untreated or treated LNCaP cells were incubated with 20 μM of the fluorogenic substrate caspase-3/caspase-7 (Ac-DEVD-AMC) for 30 min at 37° C. in 100 μl of assay buffer (50 mM Tris, pH 8.0).

[11] = tested on: LNCaP cells; conditions: LNCaP cells in soft agar, 50 μM, 21 day-incubation
Description: The soft agar assay was performed as described previously (Menter D G, Sabichi A L, Lippman S M., 2000, Selenium effects on prostate cell growth. Cancer Epidemiol Biomarkers Prev 9:1171-82) with a few modifications. In brief, in a six-well plate, a bottom feeder layer (0.6% agar) was prepared with DMEM media containing 10% fetal bovine serum, 100 units/ml penicillin, and 100 μg/ml streptomycin. […] Plates were incubated at 37° C. in 5% CO2 in a humidified incubator for three weeks. MTT (1 mg/ml) was added to each well and incubated overnight to allow complete formation of purple formazan crystals. The plates were then scanned and photographed, and the number of colonies was quantified by Quantity one v.4.0.3 software (Bio-Rad, Hercules, Calif.).

[12] = tested on: caspase-8; assay: Cell-free caspase-8 activity in lysates of VP-16-treated Jurkat T cells, inhibitor present; assay type: biochemical, human; conditions: lysates of Jurkat T cells treated with 50 μM VP-16 for 5 hours
Description: as §1

[13] = tested on: caspase-9; assay: Cell-free caspase-9 activity in lysates of VP-16-treated Jurkat T cells, inhibitor present; assay type: biochemical, human; conditions: lysates of Jurkat T cells treated with 50 μM VP-16 for 5 hours
Description: as §1

[14] = tested on: caspase-3; assay: Cell-free caspase-3 activity in lysates of VP-16-treated Jurkat T cells, inhibitor present; assay type: biochemical, human; conditions: lysates of Jurkat T cells treated with 50 μM VP-16 for 5 hours
Description: as §1

COC1C(=O)NC1c1ccccc1Cl (racemic) [lactam 2] was tested, and the caspase-3 activation [1] was “induces neither caspase-3 activation nor PARP cleavage”, the PARP cleavage [2] was “induces neither caspase-3 activation nor PARP cleavage” and the “increase in S phase population” value [3] was “did not induce accumulation of either S or sub-G1 populations”. For the same compound, the sub-G1 apoptotic population [3] was “did not induce accumulation of either S or sub-G1 populations”, the “TUNEL-positive cell population (DNA damage)” value (“TUNEL-positive cell population” for short) ([4]; 50 μM) was “did not cause any DNA damage” and the morphological changes [5] was “no morphological changes”.

For CCSN1C(=O)C(OC)C1c1ccccc1Cl (racemic) [lactam 3], the “decrease of caspase-3 activity relative to lactam 1” value [1] was roughly 50%, the “decrease of PARP cleavage relative to lactam 1” value [2] was roughly 50% and the “increase in S phase population” value [3] was 15%. For the same compound, the sub-G1 apoptotic population [3] was 10%, the “TUNEL-positive cell population” value ([4]; 50 μM) was 16% and the “normalized increase in phosphorylation of p38 over control” value [6] was 3.2 fold.

CCCCSN1C(=O)C(OC)C1c1ccccc1Cl (racemic) [lactam 4] was tested, and the “decrease of caspase-3 activity relative to lactam 1” value [1] was roughly 65%, the “decrease of PARP cleavage relative to lactam 1” value [2] was roughly 65% and the “increase in S phase population” value [3] was 8%. The sub-G1 apoptotic population [3] was 2%, the “TUNEL-positive cell population” value ([4]; 50 μM) was 3% and the “normalized increase in phosphorylation of p38 over control” value [6] was 2.6 fold.

In the case of COC1C(=O)N(SC)C1c1ccc(Cl)cc1 (racemic) [lactam 6], the “decrease of caspase-3 activity relative to lactam 1” value [1] was roughly 20% and the “decrease of PARP cleavage relative to lactam 1” value [2] was roughly 20%.

COC1C(=O)N(SCc2ccccc2)C1c1ccccc1Cl (racemic) [lactam 7] was tested, and the “decrease of caspase-3 activity relative to lactam 1” value [1] was roughly 70% and the “decrease of PARP cleavage relative to lactam 1” value [2] was roughly 70%.

In the case of COC1C(=O)N(SC)C1c1ccccc1Br (racemic) [lactam 23], the “non-viable cell population / cell death (trypan blue)” value ([7]; 24 h) was 55%.

COC1C(=O)N(SC)C1c1ccccc1I (racemic) [lactam 46] was tested, and the “non-viable cell population / cell death (trypan blue)” value ([7]; 24 h) was 60%.

For COC1C(=O)N(SC)C1c1ccccc1[N+](=O)[O-] (racemic) [lactam 47], the “cell death (trypan blue)” value ([7]; 10 μM, 24 h) was 25%, the “cell death (trypan blue)” value ([7]; 25 μM, 3 h) was 15% and the trypan blue-positive cells ([7]; 25 μM, 6 h) was 24%. For the same compound, the “cell death (trypan blue)” value ([7]; 25 μM, 24 h) was 45%, the “non-viable cell population / cell death (trypan blue)” value ([7]; 24 h) was ~94% and 80-90% and the “potency relative to lactam 1” value ([7]; 24 h, trypan blue dose-response) was roughly 2 fold. The sub-G1 population ([3]; 12 h) was 34%, the sub-G1 population ([3]; 24 h) was 57% and the TUNEL-positive cells ([4]; 50 μM, 12-24 h) was 82-90%. For the same compound, the “cells with DNA strand breaks (TUNEL)” value ([4]; 50 μM, 3 h) was roughly 70%, the PARP cleavage [8] was “nor PARP cleavage” and the “cell death (trypan blue)” value [9] was “neither cell death”. For the same compound, the “increase in caspase-3 activity over control” value (“increase in caspase-3 activity” for short) ([10]; 2 μM) was 2 fold, the “increase in caspase-3 activity” value ([10]; 10 μM) was 2.5 fold and the “increase in caspase-3 activity” value ([10]; 25 μM) was 4.2 fold. The “inhibition of colony formation” value [11] was roughly 100%.

In the case of COC1C(=O)N(SC)C1c1ccccc1 (racemic) [lactam 48], the “non-viable cell population / cell death (trypan blue)” value ([7]; 24 h) was roughly 25%.

For COC1C(=O)N(SC)C1c1ccccc1F (racemic) [lactam 49], the “non-viable cell population / cell death (trypan blue)” value ([7]; 24 h) was roughly 35%.

CC(C)(C)OC(=O)NC(CC(=O)O)C(=O)CF [Boc-D-FMK, N-tert-butoxycarbonyl-Asp-fluoromethyl ketone] was tested, and the “TUNEL positivity on co-treatment with lactam 1” value ([4]; 4 hours, 50 μM lactam 1 plus PD 169316 at 30 μM or Boc-D-FMK at 50 μM) was 97%, the “effect on lactam 1-induced p38 phosphorylation” value ([6]; 4 hours, 50 μM lactam 1 plus inhibitor at 50 μM) was “not affected” and the “direct inhibition of caspase-8 activity” value [12] was “completely blocked”. For the same compound, the “direct inhibition of caspase-9 activity” value [13] was “completely blocked” and the “direct inhibition of caspase-3 activity” value [14] was “completely blocked”.

O=C1CC2(CCCCC2)CN1 [lactam 5] was tested, and the “decrease of caspase-3 activity relative to lactam 1” value [1] was roughly 20% and the “decrease of PARP cleavage relative to lactam 1” value [2] was roughly 20%.
